Results as given in PMC6378217, “The lysyl oxidase like 2/3 enzymatic inhibitor, PXS‐5153A, reduces crosslinks and ameliorates fibrosis” (Journal of Cellular and Molecular Medicine, 2018).

Legend:
GABAA, Muscimol, Central = test: Eurofins Hit Profiling Screen; type: binding; details: 10 μmol/L
Native human LOXL2 = target: T1, Native human LOXL2 (Homo sapiens, UniProt Q9Y4K0); test: Amplex-Red fluorometric enzymatic activity assay, native human LOXL2 (IMR90 conditioned medium); type: biochemical; details: 30 minute pre-incubation; average of at least three experiments
T1 construct: separating LOXL2 in the portion at higher molecular weight; host or cells: IMR90 conditioned medium
T1 sequence (Q9Y4K0 26-774): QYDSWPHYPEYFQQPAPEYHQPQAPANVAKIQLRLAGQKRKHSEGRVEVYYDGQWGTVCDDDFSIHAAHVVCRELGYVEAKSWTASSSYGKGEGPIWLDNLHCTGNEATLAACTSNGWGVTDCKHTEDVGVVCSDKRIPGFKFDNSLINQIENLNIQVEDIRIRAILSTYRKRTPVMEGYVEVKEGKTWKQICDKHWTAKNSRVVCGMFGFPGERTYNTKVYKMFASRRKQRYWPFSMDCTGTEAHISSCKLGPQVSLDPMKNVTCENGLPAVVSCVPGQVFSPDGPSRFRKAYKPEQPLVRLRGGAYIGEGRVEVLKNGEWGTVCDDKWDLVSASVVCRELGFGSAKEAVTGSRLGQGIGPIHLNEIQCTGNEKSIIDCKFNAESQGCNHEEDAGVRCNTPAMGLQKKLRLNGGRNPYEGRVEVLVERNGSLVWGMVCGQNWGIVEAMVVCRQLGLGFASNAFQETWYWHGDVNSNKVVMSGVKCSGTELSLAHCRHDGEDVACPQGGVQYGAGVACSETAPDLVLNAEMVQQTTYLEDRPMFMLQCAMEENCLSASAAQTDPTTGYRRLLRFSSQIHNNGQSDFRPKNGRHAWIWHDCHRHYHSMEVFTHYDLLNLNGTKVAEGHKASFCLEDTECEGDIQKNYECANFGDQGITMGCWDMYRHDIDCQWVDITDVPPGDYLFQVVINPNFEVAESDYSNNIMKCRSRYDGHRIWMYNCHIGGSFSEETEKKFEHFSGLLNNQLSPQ
Procedure: (§1) The measurement of the enzymatic activity of all lysyl oxidase family members was based on the detection of hydrogen peroxide with an Amplex‐Red oxidation assay, as described in Zhou et al26 Recombinant human semicarbazide sensitive amine oxidase (SSAO/VAP1), diamine oxidase (DAO) and monoamine oxidases A and B (MAO‐A and MAO‐B) assays were performed as previously described.27 For detailed enzymatic procedures, see supporting information.
(§2) The measurement of the enzymatic activity of all lysyl oxidase family members was based on the detection of hydrogen peroxide with an Amplex-Red oxidation assay, as described in Zhou et al.[1]; miniaturised in 384 well format, with the appropriate combination of substrate and assay buffer for each individual enzyme. After a 30 minute pre-incubation of the enzyme at 37 °C with the test compound (or with different incubation times for the time-dependency assay), one volume of reaction mixture containing 120 μM Amplex Red (AR) (Life Technologies), 1.5 U/mL horseradish peroxidase (HRP) (Sigma-Aldrich) and the specific substrate was added to each sample. The relative fluorescence units (RFU) were then measured every 2.5 minutes for 30 minutes at 37°C, excitation 565 nm and emission 590, on a BMG Clariostar Microplate Reader. […]

[1] = tested on: CCl4-induced liver fibrosis; test: CCl4-induced liver fibrosis; type: in vivo, Sprague Dawley rats
Procedure: Pellet then underwent acid hydrolysis in 6 mol/L HCl at 100°C for 24 hours. Hydroxyproline and crosslinks were extracted from the hydrolysate using an automated solid phase extraction system (Gilson […] system). After extraction and drying, hydroxyproline and crosslinks were analysed by UHPLC-ESI-MS/MS on a Thermo Dionex UHPLC and TSQ Endura triple quad mass spectrometer. Total protein was quantified in the samples using a commercially available kit (QuickZyme Biosciences, Leiden, The Netherlands). For detailed procedures, see supporting information. The study was performed by Pharmalegacy with approval from local ethics committee. […] Animals were killed 48 hours after the last CCl4 administration. […] Alanine aminotransferase (ALT) and aspartate aminotransferase (AST) levels were assessed in the plasma. One lobe of the liver tissue was fixed in 10% formalin, stained for Sirius red and the percentage coverage area was measured. The remainder of the liver was snap frozen and used for protein, hydroxyproline and crosslink analysis.

Recombinant human LOXL1 = target: T2, Recombinant human LOXL1 (Homo sapiens, UniProt Q08397); test: Amplex-Red fluorometric enzymatic activity assay, recombinant human LOXL1; type: biochemical; details: 30 minute pre-incubation; average of at least three experiments
T2 construct: made in house
T2 sequence (Q08397 96-574): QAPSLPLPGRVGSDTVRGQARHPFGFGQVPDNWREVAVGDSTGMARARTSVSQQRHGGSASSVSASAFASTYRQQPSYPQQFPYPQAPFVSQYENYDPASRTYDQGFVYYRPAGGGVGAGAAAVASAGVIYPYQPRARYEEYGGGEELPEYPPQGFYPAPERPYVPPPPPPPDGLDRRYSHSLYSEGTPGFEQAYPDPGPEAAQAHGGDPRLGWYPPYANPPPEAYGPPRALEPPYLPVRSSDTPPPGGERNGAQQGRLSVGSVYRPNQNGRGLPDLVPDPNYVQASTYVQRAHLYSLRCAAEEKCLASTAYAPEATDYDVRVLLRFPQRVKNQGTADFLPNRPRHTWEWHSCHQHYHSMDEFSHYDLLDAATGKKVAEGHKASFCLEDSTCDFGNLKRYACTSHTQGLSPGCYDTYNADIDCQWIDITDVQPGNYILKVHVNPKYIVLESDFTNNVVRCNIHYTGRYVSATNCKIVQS
Procedure: as §1, §2

[2] = tested on: Glutamate, NMDA, Phencyclidine; test: Eurofins Hit Profiling Screen; type: binding; details: 10 μmol/L
Adrenergic α1B = Adrenergic α1B (Rattus norvegicus, UniProt P15823); test: Eurofins Hit Profiling Screen; type: binding; details: 10 μmol/L
Adrenergic α1B, sequence (P15823 whole entry): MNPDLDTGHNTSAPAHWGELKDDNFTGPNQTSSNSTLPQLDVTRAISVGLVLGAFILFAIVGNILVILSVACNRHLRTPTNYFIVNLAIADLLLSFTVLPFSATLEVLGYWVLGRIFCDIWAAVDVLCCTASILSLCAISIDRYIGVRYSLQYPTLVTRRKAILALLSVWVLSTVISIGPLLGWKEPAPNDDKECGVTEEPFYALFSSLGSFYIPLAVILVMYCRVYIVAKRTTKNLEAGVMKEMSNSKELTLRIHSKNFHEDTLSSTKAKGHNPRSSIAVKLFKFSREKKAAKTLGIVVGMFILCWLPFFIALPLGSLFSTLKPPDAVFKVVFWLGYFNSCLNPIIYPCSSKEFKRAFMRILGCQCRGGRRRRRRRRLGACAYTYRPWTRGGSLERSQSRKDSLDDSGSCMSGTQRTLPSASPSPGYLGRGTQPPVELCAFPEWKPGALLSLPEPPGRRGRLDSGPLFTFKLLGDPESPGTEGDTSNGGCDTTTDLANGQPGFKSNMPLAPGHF

[3] = target: Recombinant human semicarbazide sensitive amine oxidase (SSAO/VAP1) (Homo sapiens, UniProt Q16853); test: SSAO/VAP1 enzymatic activity assay; type: biochemical
Recombinant human semicarbazide sensitive amine oxidase (SSAO/VAP1), sequence (Q16853 whole entry): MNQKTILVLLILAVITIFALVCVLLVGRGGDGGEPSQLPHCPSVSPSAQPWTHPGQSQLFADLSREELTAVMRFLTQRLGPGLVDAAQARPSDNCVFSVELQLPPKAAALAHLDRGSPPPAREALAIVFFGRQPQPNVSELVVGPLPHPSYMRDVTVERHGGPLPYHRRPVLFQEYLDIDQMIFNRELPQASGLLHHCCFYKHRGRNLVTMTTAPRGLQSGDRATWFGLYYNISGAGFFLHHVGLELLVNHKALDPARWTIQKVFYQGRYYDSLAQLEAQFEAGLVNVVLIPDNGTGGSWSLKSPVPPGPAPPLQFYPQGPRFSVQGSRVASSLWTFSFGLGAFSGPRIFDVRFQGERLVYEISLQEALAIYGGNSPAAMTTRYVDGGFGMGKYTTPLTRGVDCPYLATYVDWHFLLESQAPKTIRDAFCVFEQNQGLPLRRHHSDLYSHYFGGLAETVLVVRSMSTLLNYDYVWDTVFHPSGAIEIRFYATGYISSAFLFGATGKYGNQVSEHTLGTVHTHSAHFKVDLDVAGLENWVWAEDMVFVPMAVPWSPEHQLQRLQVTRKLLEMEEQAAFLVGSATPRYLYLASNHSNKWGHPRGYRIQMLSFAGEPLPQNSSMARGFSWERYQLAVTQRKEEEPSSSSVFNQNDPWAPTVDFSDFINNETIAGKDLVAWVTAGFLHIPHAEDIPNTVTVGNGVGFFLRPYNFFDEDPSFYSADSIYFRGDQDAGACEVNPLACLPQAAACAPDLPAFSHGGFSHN
Procedure: as §1
(§3) Recombinant human semicarbazide sensitive amine oxidase (SSAO/VAP1), diamine oxidase (DAO) and monoamine oxidases A and B (MAO-A and MAO-B) assays were performed as previously described.

[4] = tested on: GABAA, Flunitrazepam, Central; test: Eurofins Hit Profiling Screen; type: binding; details: 10 μmol/L
MAO-A = MAO-A (Homo sapiens, UniProt P21397); test: MAO-A enzymatic activity assay; type: biochemical
MAO-A, sequence (P21397 whole entry): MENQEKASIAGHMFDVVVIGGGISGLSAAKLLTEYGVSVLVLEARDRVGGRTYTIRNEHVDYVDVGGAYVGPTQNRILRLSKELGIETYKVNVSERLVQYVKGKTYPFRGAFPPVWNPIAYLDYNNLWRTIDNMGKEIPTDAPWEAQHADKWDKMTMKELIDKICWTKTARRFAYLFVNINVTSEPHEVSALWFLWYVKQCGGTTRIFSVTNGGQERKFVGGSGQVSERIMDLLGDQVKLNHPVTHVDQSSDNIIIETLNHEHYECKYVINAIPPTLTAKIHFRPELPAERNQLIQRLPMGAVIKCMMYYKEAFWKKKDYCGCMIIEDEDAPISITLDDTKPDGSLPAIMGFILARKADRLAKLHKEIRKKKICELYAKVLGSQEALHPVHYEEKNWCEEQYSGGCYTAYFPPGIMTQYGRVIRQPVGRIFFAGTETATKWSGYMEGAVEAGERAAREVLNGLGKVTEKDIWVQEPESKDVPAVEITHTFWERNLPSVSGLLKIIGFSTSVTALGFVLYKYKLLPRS
Procedure: as §1, §3

For `Cc1c(-c2cccc(S(=O)(=O)N(C)C)c2)c2ncccc2n1C/C(F)=C/CN.Cl.Cl` [PXS-5153A], the “% inhibition” value (GABAA, Muscimol, Central) was -7%, the IC50 (Native human LOXL2) was 38 nM and the “pIC50 ± SD” value (Native human LOXL2) was 7.4 ± 0.12. The “mature crosslink formation (PYD + DPD)” value [1] was “reduced”, the “reduction of HYP content” value ([1]; all dosing regimens) was > 30% and the “DHLNL formation” value ([1]; all groups with therapeutic treatment) was “significant reduction”. The “PYD” value ([1]; all groups, only high dose q.d. statistically significant) was “different degrees of reduction”, the “reduction of collagen accumulation (Picrosirius red)” value ([1]; both of the daily dosing groups) was “up to 51%” and the “DHLNL/HYP ratio increase” value ([1]; crosslink normalized relative to hydroxyproline content) was “reversed”. For the same compound, the “DPD crosslinks” value ([1]; high dose q.d. treatment) was “significantly reduced”, the “liver injury, ALT and AST” value ([1]; high dose q.d. treatment compared with the CCl4 treated animals) was “significantly dampened” and the “immature crosslink formation (DHLNL + HLNL)” value ([1]; therapeutic treatment, compared with the CCl4 treated animals) was “substantially reduced”. For the same compound, the IC50 (Recombinant human LOXL1) was 1410 nM, the “pIC50 ± SD” value (Recombinant human LOXL1) was 5.8 ± 0.23 and the “% inhibition” value [2] was 3%. The “% inhibition” value (Adrenergic α1B) was 6%, the IC50 [3] was > 30000 nM and the “% inhibition” value [4] was 26%. For the same compound, the IC50 (MAO-A) was > 30000 nM.
